# From publication PMC11729425 (ACS Pharmacology & Translational Science, 2024)
# Tests used:
# [1] = test system: ceramide levels in the gastrocnemius muscle; experiment: Ceramide levels in gastrocnemius muscle after 10 days of treatment; assay type: in vivo, mice; details: 4 mg/kg/d in the food
# Experimental: (A) Schematic representation of the de novo sphingolipid synthesis pathway. (B) Chemical structures of myriocin (MYR) and ALT-007. (C) Heatmap analysis comparing the effects of treatments with the indicated concentrations of MYR and ALT-007 on lipid species in C2C12 cells. N = 3 per group. Data are shown as log2 fold change. (D) Body weight curves of mice treated with ALT-007 or vehicle (4 mg/kg/d for 10 days, in the food). (E) Mean food consumption measurement throughout the treatment. (F) Plasma levels of aspartate transaminase (AST), (G) alanine transaminase (ALT) and (H) creatine kinase (CK) after 10 days of treatment with ALT-007 at 4 mg/kg/day. (I) Ceramide levels measured in the gastrocnemius muscle after 10 days of treatment. N = 8 per group. Quantitative data are expressed as median with min to max values. *P < 0.05, **P < 0.01, ***P < 0.001. […]
# ESI source conditions were used as follows: dry gas temperature, 230 °C; nebulizer, 35 psi and flow rate of 14 L min^–1; sheath gas temperature, 400 °C and flow rate of 12 L min^–1; nozzle voltage, 500 V; and capillary voltage, 4000 V. Dynamic multiple reaction monitoring was used as the acquisition mode with a total cycle time of 500 ms. […] Raw LC–MS/MS data were processed applying Agilent Quantitative Analysis software (version B.07.00, MassHunter Agilent Technologies). […]
# Aged C57BL/6J mice [2] = experiment: Oral glucose tolerance test (oGTT) in aged mice; assay type: in vivo, C57BL/6JRj mice; details: 1 mg/kg in the food, week 17
# Experimental: For OGTT, mice underwent an overnight fast, and on the morning of the experiment, they were administered a gavage consisting of a 20% glucose solution in water (10 mL [2 g]/kg body weight). Blood glucose levels were monitored from the tail vein using a glucometer prior to the gavage and at 15, 30, 45, 60, 90, 120, 150, and 180 min thereafter. Additionally, blood samples were collected at 0 min (pregavage), 15 and 30 min to assess fasting insulin levels and glucose-stimulated insulin secretion. oGTT was performed 17 weeks post experiment onset as indicated in Figure 2A.
# Aged C57BL/6J mice [3] = experiment: Uphill running; assay type: in vivo, C57BL/6JRj mice; details: 1 mg/kg in the food, week 13, trend for improvement
# Experimental: Animals were placed on a treadmill at a speed of 15 cm/s in the beginning, then speed was increased by 3 cm/s every 12 min, with an incline of 5°. Mice were taken off the treadmill if they were considered exhausted (5 or more shocks (0.1 mA) per minute for two consecutive minutes) or if the maximum duration of the test was reached (3 h). The maximum running time before exhaustion was recorded and registered as maximum uphill running time.[34]
# Aged C57BL/6J mice [4] = experiment: CK level after 90 min downhill running; assay type: in vivo, C57BL/6JRj mice; details: 1 mg/kg in the food, week 15, trend for improvement
# Experimental: Figure 2 Chronic oral administration of ALT-007 enhances physical fitness in aged mice. (A) Schematic representation of the study time-line. Compounds were mixed in the food, ALT-007 at 1 mg/kg and DMSO at equivalent volume. At week 0: young mice were 2 months old, and the old mice were 18 months old. (B) Body weight curve over the course of the study (20 weeks). (C) Food intake curve throughout the study. (D–G) Organ mass at sacrifice (week 20), normalized to body weight. (H) Oral glucose tolerance test (oGTT) performed at week 17. (I) Best performance during hanging time normalized to BW at week 7. (J) Best performance during grip strength on the 4 limbs normalized to BW at week 8. (K) Rotarod’s best latency time at week 9. (L) VO2Max performed at week 11. (M) Uphill maximum running time performed at week 13. N = 9 per group. (N) Difference of CK level after—before 90 min downhill running performed at week 15. N = 6 in young, N = 8 in DMSO and N = 7 in ALT-007-treated groups. (O–Q) Measurement of kCAL/h at night (O) and at day (P) and movement recording in x, y, z (Q) during 24 h in CLAMS at week 19. N = 12 per group unless specified otherwise. Quantitative data are expressed as median with IQR. *P < 0.05, **P < 0.01, ***P < 0.001, ****P < 0.0001. ANOVA test was used for multiple comparison, and the Mann–Whitney U test when comparing 2 groups. All tests were 2 sided.
smiles,measurement,setting,value
COc1cc(C(=O)N2CC[C@H](NC(=O)c3ccccc3OC(F)(F)F)c3c2cnn3C(C)C)cnc1OC [ALT-007],ceramide levels in the gastrocnemius muscle,[1],effectively decreased ceramide levels with a stronger effect on very long-chain (VLC) species
same,glucose tolerance test,Aged C57BL/6J mice [2],no difference
same,ability to run uphill (maximum running time),Aged C57BL/6J mice [3],did not significantly improve
same,creatine kinase in the blood after a downhill running test,Aged C57BL/6J mice [4],nor did it reduce
